# Experimental data: US20140171510A1, “HO[…] AND/OR CONJUGATES OF AMPHETAMINE AND OTHER […] PROCESSES FOR MAKING AND USING THE SAME” (priority 2011, published 2014)
# Columns and labels:
# [1] = Intravenous study in rats, plasma d-amphetamine by ELISA (Example 8); conditions: for Tmax: d-amphetamine in plasma, […] equivalent; for % Tmax: relative to d-amp
# [2] = Average results of oral studies in rats (Table 3); format: in vivo; conditions: for % Tmax: average of oral studies in rats, relative to Lys-Amp
# [3] = Oral gavage PK study of hArg-Amp vs Lys-Amp in rats, plasma d-amphetamine by ELISA (Example 6); conditions: relative to Lys-Amp
# [4] = Intranasal study in rats, plasma d-amphetamine by ELISA (Example 7); conditions: for % Tmax: relative to d-amp
# [5] = Single-dose crossover oral PK study of hArg-Amp-2HCl and Lys-Amp in humans (Example 10); conditions: for plasma concentrations of intact prodrug: 25 mg hArg-Amp-2HCl or same molar dose, lower limit of quantitation 1.00 ng/mL; for AUC0-24 h of d-amphetamine: fasted, Vyvanse 30 mg (d-amphetamine equivalent dosages)
# [6] = Parenteral (intranasal, intravenous) administration in rats, release of amphetamine (Example 1); conditions: parental routes (intranasal, intravenous)
# [7] = pH of the prodrug in deionized water at various concentrations; format: physicochemical
# From the text: In a preferred embodiment, the homoarginine amphetamine prodrug comprises a dihydrochloride salt of homoarginine amphetamine. The pH of this prodrug in deionized water at various concentrations is as follows: […]
# [8] = Oral PK of hArg-Amp-2HCl and Lys-Amp in rats (Example 9); conditions: for AUC0-24 h of d-amphetamine: equimolar doses (hArg-Amp-2HCl […], Lys-Amp 5.05 mg/kg)
# [9] = Oral PK of hArg-Amp-2HCl and Lys-Amp in dogs (Example 9)
# [10] = oral solution, hArg-Amp-2HCl 25 mg, Vyvanse 30 mg
# [11] = oral solution, equimolar doses (4.20 and 5.05 mg/kg)
# [12] = oral solution, hArg-Amp-2HCl 25 mg
# [13] = equimolar doses (1.5 and 1.8 mg/kg)
Compound,Tmax [1] [m],% Tmax [1] [%],% Tmax [2],% Tmax [3] [%],% Tmax [4] [%],"AUC0-24 h of intact prodrug [8, 11] [ng·h/mL]","Cmax of d-amphetamine [8, 11] [ng/mL]","Cmax of intact prodrug [8, 11] [ng/mL]",AUC0-24 h of d-amphetamine ([8]; oral solution) [ng·h/mL],"AUC0-24 h of d-amphetamine [5, 12] [ng·h/mL]","Cmax of d-amphetamine [5, 10] [ng/mL]","Tmax of intact prodrug [5, 10] [min]",further results
l-homoarginine-d-amphetamine [hArg-Amp],5,100,200-400%,133,600,–,–,–,–,–,–,–,"Tmax ([2]; average of oral studies in rats (n = 30 per compound)): 120 to 240 min; Tmax of d-amphetamine [5, 10]: approximately three hours; plasma concentrations of intact prodrug ([5]; oral, listed as homoarginine amphetamine prodrug): ≤ 1.00 ng/mL; plasma concentrations of intact prodrug ([5]; oral, listed as homoarginine-amphetamine prodrug): below the detectable limit; period over which amphetamine is eliminated after the maximum plasma concentration ([5]; single oral dose of 25 mg): about 45 hours; release of amphetamine [6]: < 25%"
"C[C@@H](Cc1ccccc1)NC(=O)[C@@H](N)CCCCN=C(N)N.Cl.Cl [hArg-Amp-2HCl, l-homoarginine-d-amphetamine dihydrochloride]",–,–,–,–,–,1.8,43.2,3.1,447.2,282.7,20.7,0,"pH ([7]; 0.1 mg/mL (0.3 mM) in deionized water): 6.15 ± 0.1; pH ([7]; 1.0 mg/mL ([…]) in deionized water): 5.40 ± 0.1; pH ([7]; 10 mg/mL (26.4 mM) in deionized water): 4.35 ± 0.1; pH ([7]; 100 mg/mL (264.3 mM) in deionized water): 3.30 ± 0.1; Tmax of d-amphetamine, hArg-Amp-2HCl/Lys-Amp ([8]; oral): 150.0%; Tmax of intact prodrug, hArg-Amp-2HCl/Lys-Amp ([8]; oral): 100.0%^; Tmax of intact prodrug [8, 11]: 15 min; Tmax of d-amphetamine, hArg-Amp-2HCl/Lys-Amp ([5]; oral): 110.5%; Tmax of intact prodrug, hArg-Amp-2HCl/Lys-Amp ([5]; oral): 0%"
"l-lysine-d-amphetamine [Lys-Amp, reference compound]",–,100,100%,100,3600,74.9,71.5,90.2,596.4,421.9,30.0,36.6,"AUC0-24 h of intact prodrug [9, 13]: 285.8 ng·h/mL; Cmax of d-amphetamine [9, 13]: 95.4 ng/mL; Cmax of intact prodrug [9, 13]: 305.5 ng/mL; AUC0-24 h of d-amphetamine ([9]; equimolar doses (hArg-Amp-2HCl […], Lys-Amp 1.8 mg/kg)): 775.0 ng·h/mL; AUC0-24 h of intact prodrug [5, 10]: 19.4 ng·h/mL; Cmax of intact prodrug [5, 10]: 18.1 ng/mL"
"C[C@H](N)Cc1ccccc1 [d-amp, d-amphetamine]",5,100,–,–,100,–,–,–,–,–,–,–,"Tmax ([4]; d-amphetamine in plasma, […] equivalent, given in minutes): 5 m"
